Laboratory results: US6403532B1, “Herbicidal synergistic composition, and method of controlling weeds” (Syngenta Crop Protection, Inc., priority 1995, dated 2002)

What was measured:
Type in all cases: in vivo
transplanted rice = experiment: Herbicidal activity in paddy rice (transplanted), run-in method: crop plant tolerance
Method: (§1) Herbicidal Activity in Paddy Rice (transplanted):
(§2) The test plants are sown or planted in standard soil in shallow plastic containers under greenhouse conditions. The containers are then filled with water to soil level. After 3 days, the water level is raised by 2 cm, and the test substances are applied in the form of an aqueous suspension (Formulation Example F7, c)) by the run-in method (application into the water). The test plants are then grown on in the greenhouse under optimal conditions. 25 days after application, the test is evaluated using a % scale (100%=complete damage, 0%=no activity).
(§3) Test plants: transplanted rice, Sagittaria pygmaea, Scirpus juncoides and Heterantera.

Sagittaria pygmaea = experiment: Herbicidal activity in paddy rice (transplanted), run-in method: Sagittaria pygmaea; settings: 25 days after application
Text: (§4) A synergistic effect is always present when the activity of the active ingredient combination I and II, and/or III, and/or IV and/or V exceeds the total of the activity of the active ingredients applied singly.
(§5) The expected herbicidal activity Ae for a given combination of two herbicides can be calculated as follows (cf. COLBY, S. R., “Calculating synergistic and antagonistic response of herbicide combinations”, Weeds 15, pages 20-22, 1967):
(§6) X=per cent herbicidal activity in the treatment with the compound of formula I using a rate of application of p kg per hectare in comparison with untreated control (=0%).
(§7) Y=per cent herbicidal activity in the treatment with the compound of formulae II to V using a rate of application of q kg per hectare in comparison with untreated control.
(§8) Ae=expected herbicidal activity (per cent herbicidal activity comparison with the untreated control) after treatment with the compounds of formulae I and II to V at a rate of application of p+q kg of active ingredient per hectare.
(§9) If the activity actually observed exceeds the expected value Ae, synergism is present.
as §1, §2, §3
Table B1: Experiments in transplanted rice with Sagittaria pygmaea, using the run-in method

Heterantera = experiment: Herbicidal activity in paddy rice (transplanted), run-in method: Heterantera; settings: 25 days after application
Text: as §4, §5, §6, §7, §8, §9, §1, §2, §3

Scirpus juncoides = experiment: Herbicidal activity in paddy rice (transplanted), run-in method: Scirpus juncoides; settings: 25 days after application
Text: as §4, §5, §6, §7, §8, §9, §1, §2, §3

[1] = 500 g of active ingredient/ha, run-in method, 25 days after application
[2] = 60 g of active ingredient/ha, run-in method, 25 days after application
[3] = 250 g of active ingredient/ha, run-in method, 25 days after application

Question: `COCCOc1ccccc1S(=O)(=O)NC(=O)Nc1nc(OC)nc(OC)n1` [1.3] was tested. Which “Crop plant transplanted rice” value (transplanted rice; 6 g of active ingredient/ha, run-in method, 25 days after application) did it give?
Answer: 0%

Question: What about the “Crop plant transplanted rice” value (transplanted rice; 12 g of active ingredient/ha, run-in method, 25 days after application) of the same compound?
Answer: 0%

Question: What about the “Crop plant transplanted rice” value (transplanted rice; 24 g of active ingredient/ha, run-in method, 25 days after application) of the same compound?
Answer: 15%

Question: And the “Weed Sagittaria pygm.” value (Sagittaria pygmaea; 6 g of active ingredient/ha)?
Answer: 70%

Question: What about the “Weed Sagittaria pygm.” value (Sagittaria pygmaea; 12 g of active ingredient/ha) of the same compound?
Answer: 75%

Question: What about the “Weed Sagittaria pygm.” value (Sagittaria pygmaea; 24 g of active ingredient/ha) of the same compound?
Answer: 94%

Question: For `CCC(=O)Nc1ccc(Cl)c(Cl)c1` [2.2, 3′,4′-dichloropropionanilide], which “Crop plant transplanted rice” value (transplanted rice; [1]) is on record?
Answer: 0%

Question: What about the “Crop plant transplanted rice” value (transplanted rice; 1000 g of active ingredient/ha, run-in method, 25 days after application) of the same compound?
Answer: 0%

Question: And the “Weed Heterantera” value (Heterantera; 1000 g of active ingredient/ha)?
Answer: 0%

Question: And the “Weed Sagittaria pygm.” value (Sagittaria pygmaea; 500 g of active ingredient/ha)?
Answer: 0%

Question: And the “Weed Sagittaria pygm.” value (Sagittaria pygmaea; 1000 g of active ingredient/ha)?
Answer: 0%

Question: And the “Weed Scirpus junc.” value (Scirpus juncoides; 500 g of active ingredient/ha)?
Answer: 0%

Question: What about the “Weed Scirpus junc.” value (Scirpus juncoides; 1000 g of active ingredient/ha) of the same compound?
Answer: 35%

Question: Which “Crop plant transplanted rice” value (transplanted rice; [2]) does the source give for `COc1cc(OC)nc(Sc2cccc3c2C(=O)OC3C)n1` (stereo not shown) [I] here?
Answer: 0%

Question: What about the “Crop plant transplanted rice” value (transplanted rice; 120 g of active ingredient/ha, run-in method, 25 days after application) of the same compound?
Answer: 0%

Question: What about the “Crop plant transplanted rice” value (transplanted rice; 240 g of active ingredient/ha, run-in method, 25 days after application) of the same compound?
Answer: 0%

Question: What about the “Weed Heterantera” value (Heterantera; 60 g of active ingredient/ha) of the same compound?
Answer: 0%

Question: What about the “Weed Heterantera” value (Heterantera; 120 g of active ingredient/ha) of the same compound?
Answer: 0%

Question: And the “Weed Heterantera” value (Heterantera; 240 g of active ingredient/ha)?
Answer: 70%

Question: And the “Weed Sagittaria pygm.” value (Sagittaria pygmaea; 60 g of active ingredient/ha)?
Answer: 0%

Question: And the “Weed Sagittaria pygm.” value (Sagittaria pygmaea; 120 g of active ingredient/ha)?
Answer: 0%

Question: And the “Weed Sagittaria pygm.” value (Sagittaria pygmaea; 240 g of active ingredient/ha)?
Answer: 0%

Question: And the “Weed Scirpus junc.” value (Scirpus juncoides; 60 g of active ingredient/ha)?
Answer: 0%

Question: And the “Weed Scirpus junc.” value (Scirpus juncoides; 120 g of active ingredient/ha)?
Answer: 50%

Question: What about the “Weed Scirpus junc.” value (Scirpus juncoides; 240 g of active ingredient/ha) of the same compound?
Answer: 92%

Question: Which “Crop plant transplanted rice” value (transplanted rice; in vivo) does the source give for `CN(C(=O)COc1nc2ccccc2s1)c1ccccc1` [2.1, 2-(1,3-benzothiazol-2-yloxy)-N-methylacetanilide] here?
Answer: 0%

Question: And the “Weed Heterantera” value (Heterantera; 500 g of active ingredient/ha)?
Answer: 40%

Question: What about the “Weed Heterantera” value (Heterantera; 1000 g of active ingredient/ha) of the same compound?
Answer: 50%

Question: And the “Weed Sagittaria pygm.” value (Sagittaria pygmaea; 500 g of active ingredient/ha)?
Answer: 0%

Question: What about the “Weed Sagittaria pygm.” value (Sagittaria pygmaea; 1000 g of active ingredient/ha) of the same compound?
Answer: 0%

Question: What about the “Weed Scirpus junc.” value (Scirpus juncoides; 125 g of active ingredient/ha) of the same compound?
Answer: 0%

Question: And the “Weed Scirpus junc.” value (Scirpus juncoides; 250 g of active ingredient/ha)?
Answer: 65%

Question: And the “Weed Scirpus junc.” value (Scirpus juncoides; 500 g of active ingredient/ha)?
Answer: 94%

Question: For `CCCCOC(=O)[C@@H](C)Oc1ccc(Oc2ccc(C#N)cc2F)cc1` [3.1, butyl (R)-2-[4-(4-cyano-2-fluorophenoxy)phenoxy]propionate], which “Crop plant transplanted rice” value (transplanted rice; 125 g of active ingredient/ha, run-in method, 25 days after application) is on record?
Answer: 0%

Question: And the “Crop plant transplanted rice” value (transplanted rice; [3])?
Answer: 0%

Question: And the “Weed Heterantera” value (Heterantera; 125 g of active ingredient/ha)?
Answer: 0%

Question: What about the “Weed Heterantera” value (Heterantera; 250 g of active ingredient/ha) of the same compound?
Answer: 0%

Question: What about the “Weed Sagittaria pygm.” value (Sagittaria pygmaea; 125 g of active ingredient/ha) of the same compound?
Answer: 0%

Question: And the “Weed Sagittaria pygm.” value (Sagittaria pygmaea; 250 g of active ingredient/ha)?
Answer: 0%

Question: What about the “Weed Scirpus junc.” value (Scirpus juncoides; 125 g of active ingredient/ha) of the same compound?
Answer: 0%

Question: And the “Weed Scirpus junc.” value (Scirpus juncoides; 250 g of active ingredient/ha)?
Answer: 0%

Question: Which results are given for `CCCOCCN(C(=O)CCl)c1c(CC)cccc1CC` [2.3, 2-chloro-2′,6′-diethyl-N-(2-propoxyethyl)acetanilide]?
Answer: Crop plant transplanted rice (transplanted rice; [2]): 0%; Crop plant transplanted rice (transplanted rice; [3]): 0%; Crop plant transplanted rice (transplanted rice; 375 g of active ingredient/ha, run-in method, 25 days after application): 0%; Crop plant transplanted rice (transplanted rice; [1]): 0%; Weed Heterantera (Heterantera; 60 g of active ingredient/ha): 0%; Weed Heterantera (Heterantera; 375 g of active ingredient/ha): 80%; Weed Sagittaria pygm. (Sagittaria pygmaea; 250 g of active ingredient/ha): 25%; Weed Sagittaria pygm. (Sagittaria pygmaea; 375 g of active ingredient/ha): 55%; Weed Sagittaria pygm. (Sagittaria pygmaea; 500 g of active ingredient/ha): 50%

Question: With `CCOC(=O)c1cnn(C)c1S(=O)(=O)NC(=O)Nc1nc(OC)cc(OC)n1` [1.2] as the compound, how does the “Crop plant transplanted rice” value (transplanted rice; 8 g of active ingredient/ha, run-in method, 25 days after application) read?
Answer: 0%

Question: What about the “Crop plant transplanted rice” value (transplanted rice; 15 g of active ingredient/ha, run-in method, 25 days after application) of the same compound?
Answer: 0%

Question: And the “Crop plant transplanted rice” value (transplanted rice; 30 g of active ingredient/ha, run-in method, 25 days after application)?
Answer: 0%

Question: And the “Weed Heterantera” value (Heterantera; 8 g of active ingredient/ha)?
Answer: 0%

Question: What about the “Weed Heterantera” value (Heterantera; 15 g of active ingredient/ha) of the same compound?
Answer: 0%

Question: And the “Weed Heterantera” value (Heterantera; 30 g of active ingredient/ha)?
Answer: 0%

Question: And the “Weed Scirpus junc.” value (Scirpus juncoides; 15 g of active ingredient/ha)?
Answer: 0%

Question: And the “Weed Scirpus junc.” value (Scirpus juncoides; 30 g of active ingredient/ha)?
Answer: 20%

Question: What does the source list for `Clc1cc(Cl)nc(-c2ccccc2)n1` [VI, 4,6-dichloro-2-phenylpyrimidine]?
Answer: Crop plant transplanted rice (transplanted rice; in vivo): 0%; Weed Heterantera (Heterantera; 125 g of active ingredient/ha): 0%; Weed Sagittaria pygm. (Sagittaria pygmaea; 125 g of active ingredient/ha): 0%
